Results as given in ChEMBL document CHEMBL5137062, “Overview of Methionine Adenosyltransferase 2A (MAT2A) as an Anticancer Target: Structure, Function, and Inhibitors” (J Med Chem, 2022).
Each block holds one compound with its values, some of them ahead of it.

Legend:
[1] = target: T1, S-adenosylmethionine synthase isoform type-2 (Homo sapiens, UniProt P31153); assay: Inhibition of human MAT2A assessed as S-adenosyl methionine production using L-methionine as substrate pretreated for 60 mins followed by L-methionine and ATP addition by colorimetric analysis
T1 sequence (P31153 whole entry, canonical isoform): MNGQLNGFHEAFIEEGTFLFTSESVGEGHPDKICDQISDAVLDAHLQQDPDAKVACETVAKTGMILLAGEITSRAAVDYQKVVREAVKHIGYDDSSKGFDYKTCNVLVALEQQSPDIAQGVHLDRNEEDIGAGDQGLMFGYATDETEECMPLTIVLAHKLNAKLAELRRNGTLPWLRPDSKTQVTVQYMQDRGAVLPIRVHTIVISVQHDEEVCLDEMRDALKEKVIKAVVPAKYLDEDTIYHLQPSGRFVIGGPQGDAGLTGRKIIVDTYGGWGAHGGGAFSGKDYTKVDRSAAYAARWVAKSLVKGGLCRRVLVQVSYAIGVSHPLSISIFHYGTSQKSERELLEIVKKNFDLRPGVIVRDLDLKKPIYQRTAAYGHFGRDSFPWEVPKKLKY

[2] = Antiproliferative activity against human HCT116-MTAP null cells assessed as cell growth inhibition measured after 6 days by Cell Titer Glo analysis; assay type: functional, cell-based; settings: 144 h
[3] = target: T1, S-adenosylmethionine synthase isoform type-2; assay: Inhibition of MAT2A (unknown origin) assessed as S-adenosyl methionine production using L-methionine as substrate pretreated for 60 mins followed by L-methionine and ATP addition
HCT-116 [4] = assay: Antiproliferative activity against human HCT-116 cells expressing MTAP assessed as cell growth inhibition measured after 6 days by Cell Titer Glo analysis; assay type: functional, cell-based; settings: HCT-116, 144 h
[5] = Inhibition of rat novikoff liver hepatoma MAT isozymes assessed as S-adenosyl methionine production using L-methionine as substrate in presence of ATP; assay type: tissue-based
[6] = Inhibition of rat liver MAT isozymes assessed as S-adenosyl methionine production using L-methionine as substrate in presence of ATP; assay type: tissue-based
[7] = target: T1, S-adenosylmethionine synthase isoform type-2; assay: Inhibition of MAT2A in human NCI-H520 cells transfected with MAT2A empty vector assessed as inhibition of S-adenosyl methionine production measured after 6 hrs by Rapid Fire Mass Spectrometry analysis; assay type: cell-based
[8] = target: T1, S-adenosylmethionine synthase isoform type-2; assay: Inhibition of MAT2A in human Huh-7 cells assessed as inhibition of S-adenosyl methionine production measured after 6 hrs by Rapid Fire Mass Spectrometry analysis; assay type: cell-based
[9] = target: T1, S-adenosylmethionine synthase isoform type-2; assay: Inhibition of human MAT2A expressed in baculovirus infected Sf9 cells expression system assessed as S-adenosyl methionine production using L-methionine as substrate pretreated for 60 mins followed by L-methionine and ATP addition
HCT-116 [10] = assay: Antiproliferative activity against human HCT-116 cells expressing MTAP assessed as cell growth inhibition incubated for 24 hrs by Cell Titer Glo analysis; assay type: functional, cell-based; settings: HCT-116, 24 h
[11] = target: T1, S-adenosylmethionine synthase isoform type-2; assay: Inhibition of human recombinant His-tagged MAT2A expressed in Escherichia coli expression system assessed as S-adenosyl methionine production using L-methionine as substrate incubated for 20 mins followed by L-methionine and ATP addition by malachite green phosphate assay
[12] = Antiproliferative activity against human HCT116-MTAP null cells assessed as cell growth inhibition incubated for 92 hrs by In-cell western analysis; assay type: functional, cell-based
[13] = target: S-adenosylmethionine synthase isoform type-1 (Homo sapiens) (UniProt Q00266); assay: Inhibition of N-terminal TEV cleavable 6His-tagged human MAT1A (1 to 334 residues) expressed in Escherichia coli BL21 (DE3) cells assessed as S-adenosyl methionine production using L-methionine as substrate incubated for 30 mins followed by L-methionine and ATP addition by MS/MS analysis relative to control
S-adenosylmethionine synthase isoform type-1 (Homo sapiens), sequence (Q00266 whole entry, the tested form may be a part, canonical isoform): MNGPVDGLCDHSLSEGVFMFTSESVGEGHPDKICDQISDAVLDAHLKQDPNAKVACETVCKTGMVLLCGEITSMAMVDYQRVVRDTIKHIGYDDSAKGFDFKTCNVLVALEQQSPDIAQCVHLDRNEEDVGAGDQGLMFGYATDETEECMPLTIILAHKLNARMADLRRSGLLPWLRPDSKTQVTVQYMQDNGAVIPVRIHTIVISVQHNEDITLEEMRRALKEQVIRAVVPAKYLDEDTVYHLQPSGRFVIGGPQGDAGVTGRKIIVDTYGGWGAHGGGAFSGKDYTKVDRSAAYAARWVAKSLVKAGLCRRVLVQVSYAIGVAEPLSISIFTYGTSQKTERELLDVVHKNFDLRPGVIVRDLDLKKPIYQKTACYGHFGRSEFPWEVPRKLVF

[14] = target: T1, S-adenosylmethionine synthase isoform type-2; assay: Inhibition of N-terminal TEV cleavable 6His-tagged human MAT2A (1 to 395 residues) expressed in Escherichia coli BL21 (DE3) cells assessed as S-adenosyl methionine production using L-methionine as substrate incubated for 30 mins followed by L-methionine and ATP addition by MS/MS analysis

Compound: Cc1cc(C)c(-c2cnc(NC(=O)c3cccc(Cn4cccn4)c3)n2C)cc1C
IC50 [1]: < 0.5 µM

Compound: NC1(C(=O)O)CCCC1 [CYCLOLEUCINE]
IC50 [5]: 209 µM | IC50 [6]: 209 µM | IC50 [7]: 5600 µM | IC50 [8]: 1300 µM

Compound: [2H]C([2H])([2H])Oc1ccc(N2C(=O)N(c3ccc4nn(C)cc4c3)Cc3cnc(OCC(F)F)nc32)cc1
IC50 [9]: < 0.1 µM | IC50 (HCT-116 [10]): > 1 µM

Compound: CNc1ccc(/C=C/c2c(F)cccc2Cl)cc1
IC50 [11]: 2.1 µM

Compound: Cc1cc(=O)n2nc(C)c(-c3ccccc3)c2[nH]1
IC50 [9]: 0.008 µM | IC50 [12]: 0.009 µM

Compound: Cc1cc(-c2cnc(NC(=O)c3cccc(CN4CCCC4=O)c3)n2C)ccc1O
IC50 [1]: < 0.5 µM

Compound: Cc1cc(C)c(-c2cnc(NC(=O)c3cccc(Cn4ccccc4=O)c3)n2C)cc1Br
IC50 [1]: < 0.5 µM

Compound: CN(C)CCc1nnc2cc(-c3ccccc3)c3cc(Cl)ccc3n12
inhibition [13]: 50% | IC50 [7]: 1.2 µM | IC50 [8]: 0.225 µM | IC50 [14]: 0.42 µM

Compound: CCNc1ccc2nn(-c3ccc4nn(C)cc4c3)c(=O)c(-c3ccc(Cl)cc3)c2n1
IC50 [9]: < 0.1 µM | IC50 (HCT-116 [10]): > 1 µM

Compound: CN(C)c1ccc(/C=C/c2c(F)cccc2F)cc1
IC50 [11]: 4.9 µM

Further lines, with some results ahead:

IC50 [3]: 0.0195 µM | IC50 (HCT-116 [4]): 3.8 µM
Compound: CCOc1ncc2cc(-c3ccc4ncn(C)c4c3)c(=O)n(-c3ccc(OC(F)F)cc3)c2n1
IC50 [2]: 0.0844 µM

IC50 [9]: < 0.1 µM | IC50 (HCT-116 [10]): > 1 µM
Compound: COc1ccc(-c2c(=O)n(-c3ccc4ncsc4c3)nc3ccc(OCC(F)F)nc23)cc1

IC50 [3]: 0.0701 µM
Compound: CCOc1ncc2cc(-c3ccc(OC)cc3C)c(=O)n(-c3ccc(OC(F)F)cc3)c2n1

IC50 [9]: < 0.1 µM | IC50 (HCT-116 [10]): > 1 µM
Compound: CCNc1ccc2nn(-c3ccc4nc(C)n(C)c4c3)c(=O)c(-c3ccc(C(F)F)cc3)c2n1

IC50 [3]: 0.0365 µM | IC50 (HCT-116 [4]): > 10 µM
Compound: Cn1cnc2ccc(-c3cc4cnc(NCC(F)(F)F)nc4n(-c4ccc(OC(F)F)cc4)c3=O)cc21
IC50 [2]: 0.102 µM

IC50 [3]: 0.0047 µM
Compound: CCOc1ncc2cc(C3=CC4N=C(CCN5CCC(O)C5)N(C)C4C=C3)c(=O)n(-c3ccc(OC(F)F)cc3)c2n1 (stereo not given)

IC50 [9]: < 0.1 µM | IC50 (HCT-116 [10]): > 1 µM
Compound: COc1ccc(N2Cc3ccc(NCC(F)(F)F)nc3N(c3ccc(-c4ncn[nH]4)cc3)C2=O)cc1

IC50 [9]: < 0.1 µM | IC50 (HCT-116 [10]): > 1 µM
Compound: COc1ccc(N2C(=O)N(c3ccc4nn(C)cc4c3)Cc3cnc(NCC(F)(F)F)nc32)cc1
